Data from patent publication US10053456B2, “Cyclopropanamine compound and use thereof” (Takeda Pharmaceutical Company Limited, priority 2014, dated 2018).
Counter-ions that a name gives are not always drawn.

Test system: Gad1 H3K4me2 level in rat primary culture neurons
Test: Gad1 H3K4 methylation induction activity in rat primary culture neurons (ChIP, quantitative PCR)
Format: cell-based
Conditions: Neuron, 72 h, 3 days culture, control without compound = 100%

Cc1nnc(NC(=O)c2cc([C@@H]3C[C@H]3NC3CCC3)cs2)s1 [Example 118, 4-((1S,2R)-2-(cyclobutylamino)cyclopropyl)-N-(5-methyl-1,3,4-thiadiazol-2-yl)thiophene-2-carboxamide sulfate]
activity at 10 µM: 233%
